Experiments:
[1] = CNS penetration (statement)
PMM2 = PMM2 enzyme activity in PMM2-CDG patient-derived fibroblasts; type: cell-based, human; settings: 50 nM, 24 hours; four PMM2-CDG patient-derived fibroblast lines; vs DMSO-treated mutant cell line
Experimental: Cells were seeded in a 96-well plate, homogenization buffer (20 mM HEPES, 25 mM KCl, 1 mM DTT, 10 μg/ml leupeptin, 10 μg/ml antipain) was added and plates were freeze-thawed at —80° C. twice to lyse cells. Reaction buffer (50 mM HEPES, 5 mM MgCl2, 0.5 mM NADP+, 10 μg/ml yeast glucose-6-phosphate dehydrogenase, 10 μM glucose-1,6-bisphosphate, 10 μg/ml phosphoglucoisomerase, 5.25 μg/ml phosphomannoseisomerase) containing 200 μM mannose-1-phosphate as substrate was then added to the wells of each plate. Plates were incubated at 37° C. for 270 min and absorbance was read at 340 nm at 30, 60, 90, 120, 150, 180, 210, 240 and 270 min by removing the plate from incubation at the respective time points. All incubations were carried out with or without substrate (mannose-1-phosphate) and the difference between the two values was calculated as the enzymatic activity. Enzyme activity was normalized to total lysate protein levels. Enzyme activities of fibroblasts in the absence of an AR inhibitor were determined. […] Following this, enzyme activity was assessed as described above. […] For ease of analysis, the enzyme activity (as represented by NADPH concentration) of each treatment condition was compared with the activity of a baseline, untreated mutant cell line at the last time point.

Question: Which results are given for `O=C(O)Cc1nn(Cc2nc3cc(C(F)(F)F)ccc3s2)c(=O)c2cscc12` [Compound B]?
Answer: CNS penetration [1]: CNS penetrant; PMM2 enzyme activity in patient-derived fibroblast cell lines (PMM2): increased PMM2 enzyme activity in each of the four patient-derived cell lines tested

— US20220226323A1, “ALDOSE REDUCTASE INHIBITORS FOR TREATMENT OF PHOSPHOMANNOMUTASE 2 DEFICIENCY” (Applied Therapeutics, Inc., priority 2019, published 2022)
